Test results reported in PMC9937538 (Journal of Medicinal Chemistry, 2022).
Counter-ions that a name gives are not always drawn. Like-named read-outs stand apart in the source and are kept apart here.

Experiments:
[1] = molecular target: hCA I (Homo sapiens, UniProt P00915); test: CA inhibition, stopped-flow CO2 hydration assay
Procedure: (§1) An applied photophysics stopped-flow instrument was used for assaying the CA-catalyzed CO2 hydration activity.[37]
(§2) The uncatalyzed rates were determined in the same manner and subtracted from the total observed rates. Stock solutions of the inhibitor (0.1 mM) were prepared in distilled–deionized water, and dilutions up to 0.01 nM were done thereafter with the assay buffer. Inhibitor and enzyme solutions were preincubated together for 15 min at room temperature prior to the assay to allow for the formation of the E–I complex. The inhibition constants were obtained by nonlinear least-squares methods using PRISM 3 and the Cheng–Prusoff equation, as reported earlier, and represent the mean from at least three different determinations. All CA isoforms were recombinant proteins obtained in-house, as reported earlier.[44]−[46]

[2] = molecular target: hCA II (Homo sapiens, UniProt P00918); test: CA inhibition, stopped-flow CO2 hydration assay
Procedure: as §1, §2

[3] = molecular target: hCA IV (Homo sapiens, UniProt P22748); test: CA inhibition, stopped-flow CO2 hydration assay
Sequence of hCA IV (P22748 19-312): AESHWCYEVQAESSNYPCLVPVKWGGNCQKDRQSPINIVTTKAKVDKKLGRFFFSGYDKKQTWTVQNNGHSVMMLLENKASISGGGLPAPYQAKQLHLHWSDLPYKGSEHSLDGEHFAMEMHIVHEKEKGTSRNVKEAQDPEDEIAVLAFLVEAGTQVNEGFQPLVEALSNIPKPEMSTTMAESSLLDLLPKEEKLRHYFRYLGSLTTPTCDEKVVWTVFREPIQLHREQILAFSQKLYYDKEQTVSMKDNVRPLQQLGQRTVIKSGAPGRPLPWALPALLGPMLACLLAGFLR
Procedure: as §1, §2

[4] = molecular target: hCA VA (Homo sapiens, UniProt P35218); test: CA inhibition, stopped-flow CO2 hydration assay
Sequence of hCA VA (P35218 39-305): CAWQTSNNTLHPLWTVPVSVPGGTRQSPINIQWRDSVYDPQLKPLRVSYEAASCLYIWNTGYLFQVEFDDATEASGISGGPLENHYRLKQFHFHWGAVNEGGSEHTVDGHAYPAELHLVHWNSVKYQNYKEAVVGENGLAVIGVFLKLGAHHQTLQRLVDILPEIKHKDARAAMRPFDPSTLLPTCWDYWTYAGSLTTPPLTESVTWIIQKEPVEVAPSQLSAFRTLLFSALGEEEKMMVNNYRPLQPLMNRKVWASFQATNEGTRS
Procedure: as §1, §2

[5] = molecular target: hCA VB (Homo sapiens, UniProt Q9Y2D0); test: CA inhibition, stopped-flow CO2 hydration assay
Sequence of hCA VB (Q9Y2D0 34-317): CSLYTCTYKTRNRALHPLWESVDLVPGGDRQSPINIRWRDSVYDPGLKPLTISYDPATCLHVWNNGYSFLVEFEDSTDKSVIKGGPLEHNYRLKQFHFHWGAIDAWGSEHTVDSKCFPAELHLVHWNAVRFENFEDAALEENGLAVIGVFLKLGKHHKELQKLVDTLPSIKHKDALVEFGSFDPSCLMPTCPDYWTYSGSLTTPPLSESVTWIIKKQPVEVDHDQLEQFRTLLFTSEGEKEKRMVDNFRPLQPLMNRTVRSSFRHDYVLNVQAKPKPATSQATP
Procedure: as §1, §2

[6] = molecular target: hCA IX (Homo sapiens, UniProt Q16790); test: CA inhibition, stopped-flow CO2 hydration assay
Procedure: as §1, §2

[7] = molecular target: T1, purified recombinant human DPP IV (Homo sapiens, UniProt P27487); test: In vitro DPP IV activity assay (fluorogenic Gly-Pro-AMC substrate); assay type: biochemical
T1 construct: purchased Cayman Chemicals (Michigan)
T1 sequence (P27487 whole entry): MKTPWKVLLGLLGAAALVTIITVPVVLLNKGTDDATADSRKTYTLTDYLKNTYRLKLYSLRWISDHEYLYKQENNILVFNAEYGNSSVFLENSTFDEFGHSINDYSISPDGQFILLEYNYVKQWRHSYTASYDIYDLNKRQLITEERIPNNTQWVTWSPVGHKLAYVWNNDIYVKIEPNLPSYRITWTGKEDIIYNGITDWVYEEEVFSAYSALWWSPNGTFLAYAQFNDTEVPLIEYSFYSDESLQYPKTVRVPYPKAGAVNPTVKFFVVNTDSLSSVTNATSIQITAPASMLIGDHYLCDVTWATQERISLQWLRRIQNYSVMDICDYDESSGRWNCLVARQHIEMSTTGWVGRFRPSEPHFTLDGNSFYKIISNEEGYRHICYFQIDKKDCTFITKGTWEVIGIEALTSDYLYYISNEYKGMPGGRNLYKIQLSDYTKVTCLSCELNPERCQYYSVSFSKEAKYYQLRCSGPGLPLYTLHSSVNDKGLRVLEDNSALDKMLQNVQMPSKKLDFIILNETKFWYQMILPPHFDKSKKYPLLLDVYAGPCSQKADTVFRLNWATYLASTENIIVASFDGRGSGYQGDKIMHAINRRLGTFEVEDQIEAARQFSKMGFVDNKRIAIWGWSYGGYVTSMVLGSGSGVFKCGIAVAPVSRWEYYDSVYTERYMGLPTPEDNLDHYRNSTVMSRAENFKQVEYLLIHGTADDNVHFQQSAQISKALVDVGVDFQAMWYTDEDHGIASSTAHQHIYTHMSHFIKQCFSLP
Procedure: The DPP IV inhibition activities of the entire sets of compounds were carried out on purified recombinant human DPP IV using conditions previously optimized.[35]
Four independent in vitro experiments were carried out, and each of those was performed in triplicate in a white half-volume 96-well solid plate. […] Afterward, the samples were mixed and 50 μL was transferred to each plate well. Each reaction was started by adding 50 μL of the substrate solution (200 μM H-Gly-Pro-7-amido-4-methylcoumarin (AMC)) to each well and incubated at 37 °C for 30 min. […] The DPP IV enzyme and the substrate solution were provided by Cayman Chemicals (Michigan).

[8] = molecular target: T2, human cloned α1a-AR (Homo sapiens, UniProt P35348); test: α1a-AR binding assay ([3H]prazosin displacement); details: human cloned α1a-AR expressed in HEK293 cells
T2 construct: expressed in transfected cells
T2 sequence (P35348 1-466): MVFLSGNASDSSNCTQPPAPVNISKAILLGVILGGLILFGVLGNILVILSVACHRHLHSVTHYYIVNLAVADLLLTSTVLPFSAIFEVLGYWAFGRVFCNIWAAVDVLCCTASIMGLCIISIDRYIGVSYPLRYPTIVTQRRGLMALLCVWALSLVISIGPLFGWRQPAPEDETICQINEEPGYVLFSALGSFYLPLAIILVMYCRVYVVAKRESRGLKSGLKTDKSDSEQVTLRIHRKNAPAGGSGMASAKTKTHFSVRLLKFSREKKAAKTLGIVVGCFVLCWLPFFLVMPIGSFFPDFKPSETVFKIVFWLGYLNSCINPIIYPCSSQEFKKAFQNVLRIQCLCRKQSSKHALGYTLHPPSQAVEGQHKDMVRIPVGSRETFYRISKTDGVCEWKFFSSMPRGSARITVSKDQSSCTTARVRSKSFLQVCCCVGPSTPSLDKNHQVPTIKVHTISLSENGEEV
Description: Since WB-4101 is a potent α1 antagonist, this adrenoreceptor subtype was chosen to assess the loss of adrenergic affinity.
Figure S3. […] Curves […]
from single experiments were fitted using the standard four parameter logistic equation and represent the mean ± S.E.M. of 4 observations, 2 experi-ments. X-axis: Log concentrations of competitive test compounds. Y-axis: normalized [3H]prazosin Bound/Total bound.
In the table are reported the affinity constants, expressed as pKi (-log Ki), of compounds 11, 12 and WB-4101 for human cloned α1a-AR expressed in HEK293 cells. The values represent the arithmetic mean ± S.E.M. of 4 observations, 2 experiments.
ND, not determinable; NA, not available.
Note: data generated from binding assays were analyzed using Prism 5.02 (GraphPad Software Inc., San Diego, CA) and were fitted to a parametric function to derive best estimates of the IC50 and slope factor (nH); IC50 values were then converted to binding constant Ki according to Cheng-Prus- […]
The details on the α1a-AR binding assay have been described before2.
(1 picture or pasted object on this page, not shown here)

[9] = read-out: Ki CA IX, stopped-flow technique, mean from three assays
[10] = read-out: Ki CA I, stopped-flow technique, mean from three assays
[11] = read-out: Ki CA II, stopped-flow technique, mean from three assays
[12] = read-out: Ki CA IV, stopped-flow technique, mean from three assays
[13] = read-out: Ki CA VA, stopped-flow technique, mean from three assays
[14] = read-out: Ki CA VB, stopped-flow technique, mean from three assays
[15] = mean from three different assays

Sequence of hCA I (P00915 whole entry): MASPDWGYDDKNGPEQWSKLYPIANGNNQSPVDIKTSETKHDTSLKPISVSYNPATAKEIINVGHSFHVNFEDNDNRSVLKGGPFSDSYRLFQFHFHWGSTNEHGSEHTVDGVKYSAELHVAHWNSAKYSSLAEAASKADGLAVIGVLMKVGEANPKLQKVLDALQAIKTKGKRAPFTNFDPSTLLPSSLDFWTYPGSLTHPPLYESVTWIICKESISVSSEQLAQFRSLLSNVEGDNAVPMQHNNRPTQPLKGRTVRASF

SMILES	Ki [6, 9] [µM]	Ki [1, 10] [µM]	Ki [2, 11] [µM]	Ki [3, 12] [µM]	Ki [4, 13] [µM]	Ki [5, 14] [µM]	further results
CC(C)NS(=O)(=O)c1ccc(OCCNCC2COc3ccccc3O2)cc1 (stereo not shown) [Compound 5, [((2-(4-Isopropylsulfonamidephenoxy)ethyl)amino)-methyl]-1,4-benzodioxane Hydrochloride]							Ki [1]: > 10 µM; Ki [2]: > 10 µM; Ki [3]: > 10 µM; Ki [4]: > 10 µM; Ki [5]: > 10 µM; Ki [6]: > 10 µM
NS(=O)(=O)c1ccc(OCCNCC2COc3ccccc3O2)cc1 (stereo not shown) [Compound 1, [((2-(4-Sulfonamidephenoxy)ethyl)amino)-methyl]-1,4-benzodioxane Hydrochloride]	0.0203						
CCS(=O)(=O)Nc1ccc(OCCNCC2COc3ccccc3O2)cc1 (stereo not shown) [Compound 7, [((2-(4-Ethylsulfonylamidephenoxy)ethyl)amino)-methyl]-1,4-benzodioxane Hydrochloride]	> 10	> 10	> 10	> 10	> 10	> 10	
CN(C)S(=O)(=O)c1ccc(OCCNCC2COc3ccccc3O2)cc1 (stereo not shown) [Compound 4, [((2-(4-Dimethylsulfonamidephenoxy)ethyl)amino)-methyl]-1,4-benzodioxane Hydrochloride]	> 10	> 10	> 10	> 10	> 10	> 10	
COc1cc(S(N)(=O)=O)cc(OC)c1OCCC(N=[N+]=[N-])C1COc2ccccc2O1 (stereo not shown) [Compound 11, 3,5-Dimethoxy-4-(3-azido-3-(1,4-benzodioxan)propoxy)benzenesulfonamide]	0.745						IC50 [7, 15]: 0.0332 ± 0.0058 µM; binding affinity toward α1a-AR (in words) [8]: absence of the binding affinity; pKi α1a-AR ([8]; mean ± S.E.M.): >4
N[C@@H](CC(=O)N1CCn2c(nnc2C(F)(F)F)C1)Cc1cc(F)c(F)cc1F [Sitagliptin, reference compound]	> 10	> 10	> 10	> 10	> 10	> 10	
COc1cccc(OC)c1OCCNCC1COc2ccccc2O1 (stereo not shown) [WB-4101, 2-[(2,6-dimethoxyphenoxyethyl)aminomethyl]-1,4-benzodioxane, reference compound]	> 10	> 10	> 10	> 10	> 10	> 10	IC50 [7]: > 700 µM
COc1cc(S(N)(=O)=O)ccc1OCCC(N=[N+]=[N-])C1COc2ccccc2O1 (stereo not shown) [Compound 10, 3-Methoxy-4-(3-azido-3-(1,4-benzodioxan)propoxy)benzenesulfonamide]	0.111						
CC(C)CS(=O)(=O)Nc1ccc(OCCNCC2COc3ccccc3O2)cc1 (stereo not shown) [Compound 8, [((2-(4-Isobutylsulfanilaminophenoxy)ethyl)amino)-methyl]-1,4-benzodioxane Hydrochloride]	> 10	> 10	> 10	> 10	> 10	> 10	

Second part, led by results:

Ki [6, 9] [µM]	Ki [1, 10] [µM]	Ki [2, 11] [µM]	Ki [3, 12] [µM]	Ki [4, 13] [µM]	Ki [5, 14] [µM]	SMILES	further results
> 10	> 10	> 10	> 10	> 10	> 10	CCNS(=O)(=O)c1ccc(OCCNCC2COc3ccccc3O2)cc1 (stereo not shown) [Compound 3, [((2-(4-Ethylsulfonamidephenoxy)ethyl)amino)-methyl]-1,4-benzodioxane Hydrochloride]	
0.955						COc1cc(S(N)(=O)=O)cc(OC)c1OCCC(N)C1COc2ccccc2O1 (stereo not shown) [Compound 14, 3,5-Dimethoxy-4-(3-amino-3-(1,4-benzodioxan)propoxy)benzenesulfonamide]	IC50 [7, 15]: 0.0283 ± 0.0035 µM
> 10	> 10	> 10	> 10	> 10	> 10	CNS(=O)(=O)c1ccc(OCCNCC2COc3ccccc3O2)cc1 (stereo not shown) [Compound 2, [((2-(4-Methylsulfonamidephenoxy)ethyl)amino)-methyl]-1,4-benzodioxane Hydrochloride]	
0.328						[N-]=[N+]=NC(CCOc1ccc(S(N)(=O)=O)cc1)C1COc2ccccc2O1 (stereo not shown) [Compound 9, 4-(3-Azido-3-(1,4-benzodioxan)propoxy)benzenesulfonamide]	IC50 [7, 15]: 669 ± 23.5 µM
0.0311						COc1cc(S(N)(=O)=O)ccc1OCCC(N)C1COc2ccccc2O1 (stereo not shown) [Compound 13, 3-Methoxy-4-(3-amino-3-(1,4-benzodioxan)propoxy)benzenesulfonamide]	IC50 [7, 15]: 57.4 ± 3.2 µM
> 10	> 10	> 10	> 10	> 10	> 10	CS(=O)(=O)Nc1ccc(OCCNCC2COc3ccccc3O2)cc1 (stereo not shown) [Compound 6, [((2-(4-Methylsulfonylamidephenoxy)ethyl)amino)-methyl]-1,4-benzodioxane Hydrochloride]	
